# Target: human EP4 receptor (Homo sapiens (Human), UniProt P35408)
# Experiment: hEP4 antagonism test (cAMP HTRF, PGE2-stimulated hEP4-expressing cells)
# Type: cell-based
# Conditions: PGE2-induced stimulation of cAMP production, cells expressing the EP4 receptor; read-out: inhibition of PGE2-induced cAMP production in cells expressing the EP4 receptor, IC50
# From the text: The antagonistic action can be determined by an antagonism assay (see Example 3.2.1 of the biological examples).
# 3. Detection of the Antagonism of the Human Prostaglandin E2 (Subtype ER4) Receptor Signal
# Detection of the Antagonization of the hEP4 Signal
# Binding of the agonist prostaglandin E2 (PGE2) to the EP4 subtype of the human hPGE2-R (hEP4-R) induces activation of membrane-bound adenylate cyclases and thus the formation of cAMP. In the presence of the phosphodiesterase inhibitor IBMX, this cAMP accumulates intracellularly and is, after cell lysis, employed in a competitive detection method. In this method, it competes with a fluorescently labelled cAMP (cAMP-d2) for binding to an anti-cAMP antibody labelled with an Eu cryptate. In the absence of cellular cAMP, a complex between the Eu-cryptate-labelled anti-cAMP antibody and the cAMP-d2 molecule is formed which, after excitation at 337 nm, allows a FRET-based (FRET=fluorescence resonance energy transfer) enery transfer to the cAMP-d2 tracer and results in a long-lasting fluorescence signal (emission at 665 and 620 nm). This signal is time-resolved, i.e. measured in a suitable measuring device once the background fluorescence has subsided (time resolved; TR-FRET). Additionally, well-ratio determination (emission 665 nm/emission 620 nm*10 000) allows variations in the individual measurements in the added amounts of detection reagents to be normalized.
# Administration of prostglandin E2 and increase of intracellular cAMP reduces the FRET signal which increases again if the substance is antagonistically active.
# 3.2.1 Test for Antagonism (Figures Per Well of a 384-Well Plate):
# 4 μl of a suspension of hEP4-expressing cells (2500 cells/well) already comprising the cAMP-D2 tracer are added to the substance solutions (50 nl; 100% DMSO) initially charged in a test plate. After 20 minutes of pre-incubation at room temperature, 2 μl of a 3×PGE2 solution are added and the mixture is incubated in the presence of an EC80 concentration of the agonist (0.4 nM) for a further 60 min at room temperature (volume: ˜6 μl), and the whole reaction is then stopped by addition of 2 μl of lysis buffer (volume: ˜8 μl). After a further 20 min at room temperature, the cell lysate is measured in accordance with the instructions of the manufacturer in a measuring instrument suitable for TR-FRET (compare cAMP HTRF assay kit: Cisbio International 62AM6PEJ high range)
# Chain of human EP4 receptor (P35408 whole entry): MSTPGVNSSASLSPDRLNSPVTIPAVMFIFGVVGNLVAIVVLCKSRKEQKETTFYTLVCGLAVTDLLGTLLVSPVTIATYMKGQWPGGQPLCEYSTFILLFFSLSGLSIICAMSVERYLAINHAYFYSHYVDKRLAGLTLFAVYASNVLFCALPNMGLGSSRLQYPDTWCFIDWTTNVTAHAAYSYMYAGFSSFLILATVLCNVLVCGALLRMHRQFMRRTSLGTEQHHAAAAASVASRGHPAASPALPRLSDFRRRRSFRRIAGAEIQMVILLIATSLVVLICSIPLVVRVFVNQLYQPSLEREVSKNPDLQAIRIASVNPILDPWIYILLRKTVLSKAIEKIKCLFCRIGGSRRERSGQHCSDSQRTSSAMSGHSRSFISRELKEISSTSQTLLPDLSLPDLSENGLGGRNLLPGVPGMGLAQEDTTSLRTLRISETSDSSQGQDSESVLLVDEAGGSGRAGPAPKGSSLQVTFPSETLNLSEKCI
row,Compound,IC50 [nM]
1,"CCn1c2ccc(-c3nc4cc(C(=O)O)ccc4n3CCOC)cc2c2cc(C)cc(F)c21 [Example 10, 2-(9-Ethyl-8-fluoro-6-methyl-9H-carbazol-3-yl)-1-(2-methoxyethyl)-1H-benzimidazole-5-carboxylic Acid]",~1.5

# Same assay, conditions: hEP4-expressing cells, PGE2 at EC80 (0.4 nM), cAMP TR-FRET; read-out: hEP4 antagonization IC50
row,Compound,IC50 [nM]
1,"CCn1c2ccc(-c3nc4c(F)c(C(=O)O)ccc4n3CCOC)cc2c2cc(C)cc(F)c21 [Example 8, 2-(9-Ethyl-8-fluoro-6-methyl-9H-carbazol-3-yl)-4-fluoro-1-(2-methoxyethyl)-1H-benzimidazole-5-carboxylic Acid]",1.9
2,"CCOC(=O)c1ccc2c(c1)nc(-c1ccc3c(c1)c1cc(C)cc(F)c1n3CC)n2CCOC [Example 9, Ethyl 2-(9-ethyl-8-fluoro-6-methyl-9H-carbazol-3-yl)-1-(2-methoxyethyl)-1H-benzimidazole-5-carboxylate]",62
3,"CCn1c2ccc(-c3nc4c(C)c(C(=O)O)ccc4n3CCOC)cc2c2cc(C)cc(Cl)c21 [Example 12, 2-(8-Chloro-9-ethyl-6-methyl-9H-carbazol-3-yl)-1-(2-methoxyethyl)-4-methyl-1H-benzimidazole-5-carboxylic Acid]",2.8
4,"CCn1c2ccc(-c3nc4c(C)c(C(=O)O)ccc4n3CCOC)cc2c2cc(C)cc(F)c21 [Example 4, 2-(9-Ethyl-8-fluoro-6-methyl-9H-carbazol-3-yl)-1-(2-methoxyethyl)-4-methyl-1H-benzimidazole-5-carboxylic Acid]",2.4
5,"CCn1c2ccc(-c3nc4cc(C(=O)O)ccc4n3CCOC)cc2c2cc(C)cc(F)c21 [Example 10, 2-(9-Ethyl-8-fluoro-6-methyl-9H-carbazol-3-yl)-1-(2-methoxyethyl)-1H-benzimidazole-5-carboxylic Acid]",1.5
6,"CCn1c2ccc(-c3nc4c(C)c(C(=O)O)ccc4n3CCOC)cc2c2cc(F)cc(C)c21 [Example 6, 2-(9-Ethyl-6-fluoro-8-methyl-9H-carbazol-3-yl)-1-(2-methoxyethyl)-4-methyl-1H-benzimidazole-5-carboxylic Acid]",2
7,"CCn1c2ccc(Br)cc2c2cc(-c3nc4c(C)c(C(=O)O)ccc4n3CCOC)ccc21 [Example 2, 2-(6-Bromo-9-ethyl-9H-carbazol-3-yl)-1-(2-methoxyethyl)-4-methyl-1H-benzimidazole-5-carboxylic Acid]",11
8,"CCn1c2ccc(-c3nc4c(F)c(C(=O)O)ccc4n3CCOC)cc2c2cc(F)cc(C)c21 [Example 7, 2-(9-Ethyl-6-fluoro-8-methyl-9H-carbazol-3-yl)-4-fluoro-1-(2-methoxyethyl)-1H-benzimidazole-5-carboxylic Acid]",2.4
9,"CCn1c2ccc(-c3nc4c(C)c(C(=O)OC)ccc4n3CCOC)cc2c2cc(C)cc(F)c21 [Example 3, Methyl 2-(9-ethyl-8-fluoro-6-methyl-9H-carbazol-3-yl)-1-(2-methoxyethyl)-4-methyl-1H-benzimidazole-5-carboxylate]",40
10,"CCn1c2ccc(-c3nc4c(C)c(C(=O)OC)ccc4n3CCOC)cc2c2cc(C)cc(Cl)c21 [Example 11, Methyl 2-(8-chloro-9-ethyl-6-methyl-9H-carbazol-3-yl)-1-(2-methoxyethyl)-4-methyl-1H-benzimidazole-5-carboxylate]",47
11,"CCn1c2ccc(Br)cc2c2cc(-c3nc4c(C)c(C(=O)OC)ccc4n3CCOC)ccc21 [Example 1, Methyl 2-(6-bromo-9-ethyl-9H-carbazol-3-yl)-1-(2-methoxyethyl)-4-methyl-1H-benzimidazole-5-carboxylate]",32
